This assay concerns urinary dysfunction model rat. In words: screening test in urinary dysfunction model rat (superior colliculus lesion), cystometrography. The following applies: 0.3 mg/kg iv, 5 minutes after intravenous administration, FIG. 9. It counts as in vivo. The text has this:
FIG. 3 indicates a schematic diagram of a system to measure the status of accelerated urinary reflex used in the present invention.
Here, a cystometrogram is made when detecting the urinary reflex by putting a catheter (not indicated in the diagram) in the bladder, and continuously measuring the changes of internal bladder pressure through the said catheter.
Further, the volume of the bladder can be calculated from the results of this cystometrogram as follows. Specifically, when infusing physiological saline into the bladder at a constant rate, the volume of the bladder can be calculated by multiplying the time required to reach the threshold where the urinary reflex starts by the fixed rate.
An urinary dysfunction model rat was produced by the following method. […]
After the operation was complete and the animals had awakened from the anesthesia, the post-operative rat was measured using cystometrography based on the system indicated in FIG. 3, and the status of accelerated urinary reflex was confirmed.
Using a control rat and the rat produced under adequate conditions based on the present invention, the presence of a therapeutic effect was assessed after intravenously administering oxybutynin hydrochloride (0.3 mg/kg iv:iv means intravenous injection, and iv means the same in FIG. 9.), which is a candidate compound as a therapeutic agent for urinary dysfunction. […]

Where a name gives a salt, the structure may show the parent alone.

Consider `CCN(CC)CC#CCOC(=O)C(O)(c1ccccc1)C1CCCCC1` (centres unmarked) [oxybutynin hydrochloride], for which the bladder volume entry was “increased” and the “level of the urinary dysfunction” value is reported as “improved”.

Values taken from patent US20040255344A1, “Rodent with urinary disturbance and method of constructing the same, and method of screening remedy for urinary disturbance using the rodent” (priority 2001, published 2004).
